Measured values reported in patent US20040192697A1, “Pyrrolopyridine potassium channel openers” (priority 2002, published 2004).

Columns and labels:
[1] = tested on: Landrace pig bladder strips; assay: In vitro functional model: field-stimulated bladder tissue strips; conditions: dose dependent over concentration range of 10^−9 to 10^−5 M; control agonist
Description: In vitro Functional Model
Compounds were evaluated for functional BK channel opening activity using tissue strips obtained from Landrace pig bladders. Landrace pig bladders were obtained from female Landrace pigs of 9-30 kg. Landrace pigs were euthanized with an intraperitoneal injection of pentobarbital solution, Somlethal®, J. A. Webster Inc., Sterling Mass. The entire bladder was removed and immediately placed into Krebs Ringer bicarbonate solution (composition, mM: NaCl, 120; NaHCO3, 20; dextrose, 11; KCl, 4.7; CaCl2, 2.5; MgSO4, 1.5; KH2PO4, 1.2; K2EDTA, 0.01, equilibrated with 5% CO2/95% O2 pH 7.4 at 37° C.). Propranolol (0.004 mM) was included in all of the assays to block β-adrenoceptors. The trigonal and dome portions were discarded. Strips 3-5 mm wide and 20 mm long were prepared from the remaining tissue cut in a circular fashion. The mucosal layer was removed. One end was fixed to a stationary glass rod and the other to a Grass FT03 transducer at a basal preload of 1.0 gram. Two parallel platinum electrodes were included in the stationary glass rod to provide field stimulation of 0.05 Hz, 0.5 milli-seconds at 20 volts. […] The maximal efficacy of each compound (expressed as % relative to P1075) is reported. […] Agonist potencies were also expressed as an index relative to P1075. The index was calculated by dividing the ED50 for P1075 by the ED50 for the test agonist in a given tissue. […]

Structure (SMILES) | melting point [°C] | effect on stimulated twitch of bladder strips [1]
N#Cc1c(N2CCC[C@H]2CO)[nH]c2cccnc12 [Example 10, (S)-2-(2-Hydroxymethyl-pyrrolidin-1-yl)-1H-pyrrolo[3,2-b]pyridine-3-carbonitrile] | 207 to 209 | –
N#Cc1c(N2CCCCC2)[nH]c2cccnc12 [Example 18, 2-Piperidin-1-yl-1H-pyrrolo[3,2-b]pyridine-3-carbonitrile] | 241 to 242 | –
CCC(C)(C)N=C(NC#N)Nc1cccnc1 [Example P1075] | – | completely eliminated the stimulated twitch
